Test results published in BindingDB's records for doi:10.1021/acs.jmedchem.8b00277 (2018).

Experiment: Inhibition of HIV1 NL4-3 protease assessed as decrease in viral replication in human MT2 cells after 4 days by luciferase reporter gene assay

Row | EC50 | Structure (SMILES)
1 | 5.3 nM | COC(=O)N[C@H](C(=O)NN(Cc1ccc(-c2ccccn2)cc1)C[C@H](OC(=O)[C@@H](NC(=O)OC)C(C)(C)C)[C@H](Cc1ccccc1)NC(=O)OC(OC(=O)[C@@H](N)C(C)C)C(C)C)C(C)(C)C (stereo partly drawn)
2 | 1.8 nM | COC(=O)N[C@H](C(=O)NN(Cc1ccc(-c2ccccn2)cc1)C[C@H](OC(=O)[C@@H](NC(=O)OC)C(C)(C)C)[C@@H](N)Cc1ccccc1)C(C)(C)C
3 | 0.7 nM | COC(=O)N[C@H](C(=O)N[C@@H](Cc1ccccc1)[C@@H](O)CN(Cc1ccc(-c2ccccn2)cc1)NC(=O)[C@@H](NC(=O)OC)C(C)(C)C)C(C)(C)C [CGP 73547]
